Laboratory results published in patent US20260014146A1, “CDK2 INHIBITORS AND METHODS OF USING THE SAME” (Cedilla Therapeutics, Inc., priority 2022, published 2026).
pIC50: −log10 of the molar value.

Legend:
[1] = system: Kuramochi cells labeled with mApple-H2B; experiment: IncuCyte cell proliferation assay; assay type: cell-based; conditions: Kuramochi RB-WT, cell count 0 to 72 hours; method calls it GI50
Outline: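 mApple-H2B-labelled Kuramochi cells were treated with compound (10-point, half-log dilutions, 20 μM top) and fluorescent nuclei counted by imaging at 0 and 72 h. Fold change in count was normalized to DMSO wells and fitted to dose-response curves to give GI50.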

CDK2/Cyclin E1 = CDK2/Cyclin E1 (Homo sapiens (Human), UniProt P24941); experiment: ADP-Glo Luminescent Kinase Assay, ADPGLO (CDK2/E1-37C); assay type: biochemical; conditions: 0.18 nM CDK2/Cyclin E1, 100 μM ATP, 1.5 μM Histone H1, 37° C.; read-out: Pharmaron ADPGLO (CDK2/E1-37C): IC50
Description: Inhibition of CDK2/Cyclin E1 activity by the presence of small molecules was evaluated using ADP-Glo Luminescent Kinase Assay (Promega). Activated CDK2/Cyclin E1 was incubated with its substrate Histone H1 (SignalChem H10-54N) in the kinase reaction buffer (100 μM ATP, 50 mM HEPES pH 7.5, 10 mM MgCl2, 1 mM EDTA, 2 mM DTT, 0.01% Brij35, 0.5 mg/mL BSA). Luminescence was recorded with an Envision plate reader (PerkinElmer).
Dose titrations of inhibitors in 100% DMSO were combined with 0.36 nM CDK2/Cyclin E1 in reaction buffer. The mixtures were incubated for 60 minutes at 37° C. before the addition of ATP and Histone H1 substrate to initiate the kinase reaction. The final conditions were 0.18 nM CDK2/Cyclin E1, 100 μM ATP, and 1.5 μM Histone H1. The reactions were incubated at 37° C. for 90 minutes before being stopped with the addition of ADP-Glo reagent. This mixture was incubated at room temperature for 60 minutes before Kinase Detection Solution is added to generate luminescence. The stopped reactions were analyzed on an Envision plate reader. The conversion ratios were normalized to yield % activity, plotted against compound concentration, and fit to a four-parameter equation to determine the IC50 for each compound.

SMILES | pIC50 (CDK2/Cyclin E1) | pIC50 [1]
C[C@@H](OCC12CCC(CC1)OC2)[C@@H](COc1ccccc1C(=O)O)NC(=O)[C@@H]1CN(c2cc(F)cc3ncsc23)CC12CN(C(=O)C1(C(F)(F)F)CC1)C2 [Compound I-49, 2-((2R,3R)-3-((2-oxabicyclo[2.2.2]octan-4-yl)methoxy)-2-((S)-6-(5-fluorobenzo[d]thiazol-7-yl)-2-(1-(trifluoromethyl)cyclopropane-1-carbonyl)-2,6-diazaspiro[3.4]octane-8-carboxamido)butoxy)benzoic acid] | < 5.00 | < 4.70
C[C@@H](OCC12CCC(CC1)OC2)[C@H](NC(=O)[C@@H]1CN(c2cccc3nc(O)cnc23)CC12CN(C(=O)C1(C(F)(F)F)CC1)C2)C(=O)N1CCC(c2nccs2)CC1 [Compound I-45, (S)-N-((2S,3R)-3-((2-oxabicyclo[2.2.2]octan-4-yl)methoxy)-1-oxo-1-(4-(thiazol-2-yl)piperidin-1-yl)butan-2-yl)-6-(2-hydroxyquinoxalin-5-yl)-2-(1-(trifluoromethyl)cyclopropane-1-carbonyl)-2,6-diazaspiro[3.4]octane-8-carboxamide] | < 5.00 | < 4.70
C[C@@H](OCC12CCC(CC1)OC2)[C@@H](COC1CCC(c2ccccc2C(=O)O)CC1)NC(=O)[C@@H]1CN(c2cc(F)cc3ncsc23)CC12CN(C(=O)C1(C(F)(F)F)CC1)C2 (stereo partly drawn) [Compound I-53, 2-(4-((2R,3R)-3-(2-oxabicyclo[2.2.2]octan-4-ylmethoxy)-2-((S)-6-(5-fluorobenzo[d]thiazol-7-yl)-2-(1-(trifluoromethyl)cyclopropanecarbonyl)-2,6-diazaspiro[3.4]octane-8-carboxamido)butoxy)cyclohexyl)benzoic acid] | < 5.00 | < 4.70

More lines, main results first:

pIC50 (CDK2/Cyclin E1) | SMILES | pIC50 [1]
5.30 to 6.30 | C[C@@H](OCC12CCC(CC1)OC2)[C@H](NC(=O)[C@@H]1CN(c2cc(F)cc3ncsc23)CC12CN(C(=O)C1(C(F)(F)F)CC1)C2)C(=O)N1CCC(c2nccs2)CC1 [Compound I-48, (S)-N-((2S,3R)-3-((2-oxabicyclo[2.2.2]octan-4-yl)methoxy)-1-oxo-1-(4-(thiazol-2-yl)piperidin-1-yl)butan-2-yl)-6-(5-fluorobenzo[d]thiazol-7-yl)-2-(1-(trifluoromethyl)cyclopropane-1-carbonyl)-2,6-diazaspiro[3.4]octane-8-carboxamide] | 5.30 to 6.30
5.00 to 5.30 | C[C@@H](OCC12CCC(CC1)OC2)[C@H](NC(=O)[C@@H]1CN(c2cc(F)cc3ncsc23)CC12CN(C(=O)C1(C(F)(F)F)CC1)C2)C(=O)NS(=O)(=O)c1ccc(F)cc1F [Compound I-51, (S)-N-((2S,3R)-3-(2-oxabicyclo[2.2.2]octan-4-ylmethoxy)-1-(2,4-difluorophenylsulfonamido)-1-oxobutan-2-yl)-6-(5-fluorobenzo[d]thiazol-7-yl)-2-(1-(trifluoromethyl)cyclopropanecarbonyl)-2,6-diazaspiro[3.4]octane-8-carboxamide] | < 4.70
< 5.00 | C[C@@H](OCC12CCC(CC1)OC2)[C@H](NC(=O)[C@@H]1CN(c2cc(F)cc3ncsc23)CC12CN(C(=O)C1(C(F)(F)F)CC1)C2)C(=O)N1CCC2(CC1)COC2 [Compound I-46, (S)-N-((2S,3R)-3-(2-oxabicyclo[2.2.2]octan-4-ylmethoxy)-1-oxo-1-(2-oxa-7-azaspiro[3.5]nonan-7-yl)butan-2-yl)-6-(5-fluorobenzo[d]thiazol-7-yl)-2-(1-(trifluoromethyl)cyclopropanecarbonyl)-2,6-diazaspiro[3.4]octane-8-carboxamide] | < 4.70
5.00 to 5.30 | C[C@@H](OCC12CCC(CC1)OC2)[C@H](NC(=O)[C@@H]1CN(c2cc(F)cc3ncoc23)CC12CN(C(=O)C1(C(F)(F)F)CC1)C2)C(=O)N1CCC(c2nccs2)CC1 [Compound I-52, (S)-N-((2S,3R)-3-((2-oxabicyclo[2.2.2]octan-4-yl)methoxy)-1-oxo-1-(4-(thiazol-2-yl)piperidin-1-yl)butan-2-yl)-6-(5-fluorobenzo[d]oxazol-7-yl)-2-(1-(trifluoromethyl)cyclopropane-1-carbonyl)-2,6-diazaspiro[3.4]octane-8-carboxamide] | 4.70 to 5.30
5.30 to 6.30 | C[C@@H](OCC12CCC(CC1)OC2)[C@H](NC(=O)[C@@H]1CN(c2cc(F)cc3nccnc23)CC12CN(C(=O)C1(C(F)(F)F)CC1)C2)C(=O)N1CCC(c2nccs2)CC1 [Compound I-44, (S)-N-((2S,3R)-3-(2-oxabicyclo[2.2.2]octan-4-ylmethoxy)-1-oxo-1-(4-(thiazol-2-yl)piperidin-1-yl)butan-2-yl)-6-(7-fluoroquinoxalin-5-yl)-2-(1-(trifluoromethyl)cyclopropanecarbonyl)-2,6-diazaspiro[3.4]octane-8-carboxamide] | < 4.70
